{"source": "patent US4568689A", "about": "“Pharmaceutical preparation for the treatment of hypertensive disease and myocardial infarction” (priority 1983, dated 1986)", "tested_on": "experimental necrosis of myocardium caused by introduction of adrenaline", "assay": "histological analysis of experimental necrosis of myocardium caused by adrenaline", "format": "in vivo, rats of the Wistar line", "experimental": "A comparative study of the effects produced by the preparation according to the present invention and finoptin on an experimental necrosis of myocardium caused by introduction of adrenaline.\nThe experiments were carried out on rats of the Wistar line of gregarious keeping, both sexes, with a mass of 170 to 225 g. Each preparation was studied on a separate group of animals: (group of adrenaline-control, group of finoptin, group of the preparation according to the present invention). 72 rats were used in the experiments altogether. Injuries of myocardium were caused by way of a single-time subcutaneous administration of a 0.1% solution of adrenaline hydrochloride in the dose of 3 mg per kg of the rat's bodyweight. […] The preparation of this invention was administered subcutaneously, finoptin-per os. On the first day of the experiment the preparations were administered 30 minutes after injection of adrenaline hydrochloride. The experiment lasted for 19 days. Slaughters were effected on the 4th, 8th, 12th and 19th day of the experiment. The animals were decapitated. The heart was fixed in a 10% solution of neutral formalin and sealed in paraffin. Serial sections with the thickness of 5-6μ were coloured by Ehrlich hematoxylin-eosin. The state of vessels of myocardium, cardiomyocytes and interstitial tissue were evaluated by histological analysis.", "key": {"[1]": {"settings": "4th day, grade/number of animals (6)"}, "[2]": {"settings": "8th day, grade/number of animals (6)"}, "[3]": {"settings": "12th day, grade/number of animals (6)"}, "[4]": {"settings": "19th day, grade/number of animals (5)"}}, "note": "Entries after “also recorded” stand apart in the source; their conditions may differ.", "data": [{"compound": "C[N+]1(C)CC(CC(=O)[O-])C(=O)N1", "note": "(centres unmarked) [Preparation of this invention, (1,1-dimethyl-3-oxopyrazolin-1-io-4-yl)acetate]", "values": [{"measurement": "changes in cardiomyocytes", "setting": "4th day, 25 mg/kg", "value": "The granular-lumpy decomposition, necrosis of 3-5 cells is observed in a half of the investigated animals"}, {"measurement": "changes in interstitial tissue", "setting": "4th day, 25 mg/kg", "value": "The formation of granulomae on the side of the interstitial tissue is observed in all of the animals"}, {"measurement": "changes in vessels", "setting": "4th day, 25 mg/kg", "value": "the left ventricle capillaries are plethoric. In two cases insignificant infiltrations of the adventitia with lymphoid cells are observed"}, {"measurement": "edema (interstitial tissue)", "setting": "[1]", "value": "0/6"}, {"measurement": "necrobiotic regions in the wall", "setting": "[1]", "value": "0/6"}, {"measurement": "necrosis of more than 5 cells", "setting": "[1]", "value": "0/6"}, {"measurement": "wall necrosis (vessels)", "setting": "[1]", "value": "0/6"}, {"measurement": "overall therapeutic effect on the myocardium", "setting": "4th, 8th, 12th and 19th day", "value": "possesses a clearly manifested therapeutic effect allowing no significant changes in the myocardium, prevents the growth of the scarring tissue, contributes to the restoration of morphological structures of the myocardium"}, {"measurement": "changes in interstitial tissue", "setting": "8th day, 25 mg/kg", "value": "the formation of the scarring tissue is to a lesser extent than in the control group"}, {"measurement": "changes in vessels", "setting": "8th day, 25 mg/kg", "value": "the coronary vessels are without changes; in some cases insignificantly plethoric vessels and changes in cells in the form of swelling are observed"}, {"measurement": "diffusive round-cell infiltration", "setting": "[2]", "value": "0/6"}, {"measurement": "edema (interstitial tissue)", "setting": "[2]", "value": "0/6"}, {"measurement": "infiltration of the adventitia with lymphoid cells", "setting": "[2]", "value": "0/6"}, {"measurement": "necrobiotic regions in the wall", "setting": "[2]", "value": "0/6"}, {"measurement": "necrosis of more than 5 cells", "setting": "[2]", "value": "0/6"}, {"measurement": "nuclei (pyknosis)", "setting": "[2]", "value": "0/6"}, {"measurement": "wall necrosis (vessels)", "setting": "[2]", "value": "0/6"}, {"measurement": "changes in cardiomyocytes", "setting": "12th day, 25 mg/kg", "value": "In comparison with the 8th day of the experiment eosinophilia and contructure type changes are decreased"}, {"measurement": "changes in interstitial tissue", "setting": "12th day, 25 mg/kg", "value": "the scarring tissue formation is more distinctly pronounced. These changes are substantially less revealed than the changes in the control group (adrenaline)"}, {"measurement": "changes in vessels", "setting": "12th day, 25 mg/kg", "value": "an insignificant plethora of the vessels is observed on the 12th day of the experiment"}, {"measurement": "Nuclei (pykhnosis)", "setting": "[3]", "value": "0/6"}, {"measurement": "diffusive round-cell infiltration", "setting": "[3]", "value": "0/6"}, {"measurement": "edema (interstitial tissue)", "setting": "[3]", "value": "0/6"}, {"measurement": "infiltration of the adventitia with lymphoid cells", "setting": "[3]", "value": "0/5"}, {"measurement": "necrobiotic regions with changes in the vessel wall", "setting": "[3]", "value": "0/6"}, {"measurement": "necrosis of more than 5 cells", "setting": "[3]", "value": "0/6"}, {"measurement": "wall necrosis (vessels)", "setting": "[3]", "value": "0/6"}, {"measurement": "changes in cardiomyocytes", "setting": "19th day, 25 mg/kg", "value": "In half of the animals the granular-lumpy decomposition is less pronounced. Necrosis of individual cells and eosinophilia, as well as contructure type changes are also observed"}, {"measurement": "changes in connective tissue", "setting": "19th day, 25 mg/kg", "value": "a less pronounced formation of the scarring tissue is to be noted as compared to the control group"}, {"measurement": "changes in vessels", "setting": "19th day, 25 mg/kg", "value": "By the 19th day this phenomena becomes more clearly pronounced; also recorded: no changes were noticed on the part of the coronary vessels. The plethora of capillaries in the left ventricle wall is noticed"}, {"measurement": "changes in the endothelium", "setting": "[4]", "value": "0/5"}, {"measurement": "infiltration of the adventitia with lymphoid cells", "setting": "[4]", "value": "0/5"}, {"measurement": "necrobiotic regions with changes in the vessel wall", "setting": "[4]", "value": "0/5"}, {"measurement": "necrosis of more than 5 cells", "setting": "[4]", "value": "0/5"}, {"measurement": "nuclei (pyknosis)", "setting": "[4]", "value": "0/5"}]}]}
